Test results: ChEMBL document CHEMBL4825694 (Eur J Med Chem, 2021)

Key:
[1] = molecular target: T1, Peroxisome proliferator-activated receptor gamma (Homo sapiens, UniProt P37231); experiment: Partial agonist activity at GAL4 DBD-fused PPARgamma LBD (unknown origin) expressed in pG5 luc and pBIND transfected HEK293T cells assessed as transcriptional activation incubated for 12 hrs by fluorescence based luciferase assay
T1 sequence (P37231 whole entry): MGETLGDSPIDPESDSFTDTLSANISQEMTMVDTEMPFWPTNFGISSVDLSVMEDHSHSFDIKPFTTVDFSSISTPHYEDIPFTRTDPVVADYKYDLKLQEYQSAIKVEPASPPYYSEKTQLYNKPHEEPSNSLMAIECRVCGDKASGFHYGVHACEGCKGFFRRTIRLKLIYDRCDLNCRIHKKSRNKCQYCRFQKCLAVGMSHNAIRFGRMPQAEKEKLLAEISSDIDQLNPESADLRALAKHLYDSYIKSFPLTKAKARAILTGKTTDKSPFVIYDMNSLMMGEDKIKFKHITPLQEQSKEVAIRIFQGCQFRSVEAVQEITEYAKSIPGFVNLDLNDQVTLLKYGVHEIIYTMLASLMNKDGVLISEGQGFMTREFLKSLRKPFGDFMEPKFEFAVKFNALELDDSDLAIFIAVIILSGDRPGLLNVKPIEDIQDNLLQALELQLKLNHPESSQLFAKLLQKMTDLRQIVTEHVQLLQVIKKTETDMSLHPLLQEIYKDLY

[2] = molecular target: T1, Peroxisome proliferator-activated receptor gamma; experiment: Binding affinity to GAL4-DBD-fused PPARgamma ligand binding domain (unknown origin) expressed in HEK293T cells by spectra-fluorophotometry analysis
[3] = molecular target: T2, Prostaglandin G/H synthase 2 (Homo sapiens, UniProt P35354)
T2 sequence (P35354 whole entry): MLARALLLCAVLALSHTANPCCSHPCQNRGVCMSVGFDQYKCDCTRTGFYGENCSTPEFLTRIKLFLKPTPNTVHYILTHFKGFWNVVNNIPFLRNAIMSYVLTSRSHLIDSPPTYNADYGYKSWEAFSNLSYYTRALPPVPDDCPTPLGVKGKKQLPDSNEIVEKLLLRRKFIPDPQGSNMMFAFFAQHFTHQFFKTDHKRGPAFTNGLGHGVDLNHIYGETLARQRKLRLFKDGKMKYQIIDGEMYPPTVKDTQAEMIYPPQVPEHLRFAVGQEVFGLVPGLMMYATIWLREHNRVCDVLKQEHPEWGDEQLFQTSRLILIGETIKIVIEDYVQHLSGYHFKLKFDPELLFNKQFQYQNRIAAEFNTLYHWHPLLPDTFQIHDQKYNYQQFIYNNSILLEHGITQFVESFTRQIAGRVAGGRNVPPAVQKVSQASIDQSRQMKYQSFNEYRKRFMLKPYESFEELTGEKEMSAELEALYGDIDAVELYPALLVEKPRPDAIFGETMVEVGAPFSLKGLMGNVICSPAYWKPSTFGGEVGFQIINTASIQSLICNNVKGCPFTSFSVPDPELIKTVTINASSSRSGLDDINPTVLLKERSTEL

| EC50 [1] | Kd [2] | IC50 [3] | SMILES |
| --- | --- | --- | --- |
| > 50 µM | > 100 µM | – | CC1=C(CC(=O)O)c2ccccc2/C1=C\c1cccc(C)c1 |
| 5.3 µM | 2.46 µM | – | COc1cccc(/C=C2/C(C)=C(CC(=O)O)c3cc(F)ccc32)c1 |
| > 50 µM | > 100 µM | – | CC1=C(CC(=O)O)c2ccccc2/C1=C/c1cccc(C)c1 |
| 22.7 µM | > 100 µM | – | CC1=C(CC(=O)O)c2cc(F)ccc2/C1=C\c1ccc([S+](C)[O-])cc1 (configuration not stated) |
| > 50 µM | > 100 µM | – | CC1=C(CC(=O)O)c2cc(F)ccc2/C1=C\c1ccc(C(C)C)cc1 |
| – | – | 286 µM | CC1=C(CC(=O)O)c2cc(F)ccc2/C1=C\c1cccc(OCc2ccccc2)c1 |
| > 50 µM | > 100 µM | – | CC1=C(CC(=O)O)c2cc(F)ccc2/C1=C\c1ccc(Oc2ccccc2)cc1 |
| 11.7 µM | 6.67 µM | – | CC1=C(CC(=O)O)c2cc(F)ccc2/C1=C\c1ccc(F)cc1 |
| > 50 µM | > 100 µM | – | CC1=C(CC(=O)O)c2cc(F)ccc2/C1=C\c1ccc(OCc2ccccc2)cc1 |
